Assay results from patent US20250026734A1 (priority 2021, published 2025).

How the values were obtained:
[1] = system: SARS-CoV-2 (WK-521); test: microbe, parasite or virus in culture; type: cell-based; details: Severe acute respiratory syndrome coronavirus 2, HEK-293T, 72 h; for IC50: read-out: IC50 (concentration of agent which reduces viral production and replication by 50%); for IC90: read-out: IC90 (concentration of agent which reduces viral production and replication by 90%)
[2] = in vitro; details: human
[3] = system: SARS-CoV (SARS-CoV-HKU-39849); test: microbe, parasite or virus in culture; type: cell-based; details: Severe acute respiratory syndrome coronavirus, HEK-293T
[4] = system: MERS-CoV (MERS-CoV-EMC/2012); test: microbe, parasite or virus in culture; type: cell-based; details: Middle East respiratory syndrome-related coronavirus, HEK-293T
[5] = in vitro; details: African green monkey

Compound | IC50 [1] [µM] | IC90 [1] [µM] | CC50 [2] [µM] | IC50 [3] [µM] | IC90 [3] [µM] | IC50 [4] [µM] | IC90 [4] [µM] | CC50 [5] [µM]
CCCCn1c(=O)c2cc(NC=O)ccc2c2cc(C(O)(C(F)(F)F)C(F)(F)F)ccc21 [NR-86] | 0.08 | 3.07 | 16.7 | – | – | – | – | –
CCCCn1c(=O)c2ccc(NCCCO)cc2c2cc(C(O)(C(F)(F)F)C(F)(F)F)ccc21 [NR-98] | 1.16 | > 10 | > 20 | – | – | – | – | –
CCCCn1c(=O)c2cc(NC(=O)NCCO)ccc2c2cc(C(O)(C(F)(F)F)C(F)(F)F)ccc21 [NR-72] | 0.62 | 2.29 | 9 | – | – | – | – | –
CCCCn1c(=O)c2ccc(NCCCCCO)cc2c2cc(C(O)(C(F)(F)F)C(F)(F)F)ccc21 [NR-100] | 0.59 | > 10 | > 20 | – | – | – | – | –
CCCCn1c(=O)c2ccc(NC(=O)CO)cc2c2cc(C(O)(C(F)(F)F)C(F)(F)F)ccc21 [NR-17] | 0.519 | 3.35 | > 20 | – | – | – | – | –
CCCCn1c(=O)c2ccc(NCCCCO)cc2c2cc(C(O)(C(F)(F)F)C(F)(F)F)ccc21 [NR-99] | 1.3 | > 10 | > 20 | – | – | – | – | –
CCCCn1c(=O)c2ccc(NCCC)cc2c2cc(C(O)(C(F)(F)F)C(F)(F)F)ccc21 [NR-103] | 2.35 | > 10 | > 20 | – | – | – | – | –
CCCCn1c(=O)c2ccc(N)c(SC)c2c2cc(C(O)(C(F)(F)F)C(F)(F)F)ccc21 [NR-87] | 0.85 | 4.9 | 18.2 | – | – | – | – | –
CCCCn1c(=O)c2ccc(NCC(N)=O)cc2c2cc(C(O)(C(F)(F)F)C(F)(F)F)ccc21 [NR-96] | 0.68 | 4 | > 20 | – | – | – | – | –
CCCCn1c(=O)c2ccc(NC(CO)CO)cc2c2cc(C(O)(C(F)(F)F)C(F)(F)F)ccc21 [NR-89] | 0.35 | 6.1 | > 20 | 4.74 | 20.2 | 6.77 | 19 | –
CCCCn1c(=O)c2ccc(NCCO)cc2c2cc(C(O)(C(F)(F)F)C(F)(F)F)ccc21 [NR-31] | 0.063 | 1.76 | > 20 | 0.74 | 6.24 | 2.15 | 5.96 | 17.6
CCCCn1c(=O)c2cc(F)c(NC3CCOC3)cc2c2cc(C(O)(C(F)(F)F)C(F)(F)F)ccc21 (centres unmarked) [NR-78] | 0.65 | 3.59 | 17.8 | – | – | – | – | –
CCCCn1c(=O)c2cc(F)c(NCCO)cc2c2cc(C(O)(C(F)(F)F)C(F)(F)F)ccc21 [NR-56] | 0.29 | 8.07 | 29.5 | – | – | – | – | –
CCCCn1c(=O)c2ccc(NC(=O)C(C)C)cc2c2cc(C(O)(C(F)(F)F)C(F)(F)F)ccc21 [NR-16] | 0.575 | 2.03 | 15.8 | – | – | – | – | –
CCCCn1c(=O)c2cc(F)c(NCc3ccc(O)cc3)cc2c2cc(C(O)(C(F)(F)F)C(F)(F)F)ccc21 [NR-55] | 0.15 | 6.79 | > 80 | – | – | – | – | –
CCCCn1c(=O)c2cc(NC(=O)C(C)N)ccc2c2cc(C(O)(C(F)(F)F)C(F)(F)F)ccc21 (centres unmarked) [NR-50] | 0.65 | 4.6 | 12 | – | – | – | – | –

Compound | IC50 [1] [µM] | IC90 [1] [µM] | CC50 [2] [µM] | IC50 [3] [µM] | IC90 [3] [µM] | IC50 [4] [µM] | IC90 [4] [µM] | CC50 [5] [µM]
CC(C)Cn1c(=O)c2ccc(NCCO)cc2c2cc(C(O)(C(F)(F)F)C(F)(F)F)ccc21 [NR-91] | 0.51 | 4 | > 20 | – | – | – | – | –
CCCCn1c(=O)c2ccc(NC(=O)[C@H](N)CO)cc2c2cc(C(O)(C(F)(F)F)C(F)(F)F)ccc21 [NR-47] | 0.7 | 3.3 | 11.7 | – | – | – | – | –
CCCCn1c(=O)c2ccc(NC(=O)C(C)N)cc2c2cc(C(O)(C(F)(F)F)C(F)(F)F)ccc21 (centres unmarked) [NR-28] | 0.12 | 1.68 | 11.8 | – | – | – | – | –
CCCCn1c(=O)c2ccc(NCC(O)CO)cc2c2cc(C(O)(C(F)(F)F)C(F)(F)F)ccc21 (centres unmarked) [NR-90] | 0.58 | 3.87 | > 20 | 2.4 | 14.2 | 3.84 | 13.6 | –
CCCCn1c(=O)c2ccc(C(CCO)CCO)cc2c2cc(C(O)(C(F)(F)F)C(F)(F)F)ccc21 [NR-101] | 0.54 | > 10 | > 20 | – | – | – | – | –
CCCCn1c(=O)c2ccc(NC(=O)CCO)cc2c2cc(C(O)(C(F)(F)F)C(F)(F)F)ccc21 [NR-38] | 0.058 | > 20 | > 20 | – | – | – | – | –
CCCCn1c(=O)c2ccc(NC(=O)C(C)N)c(F)c2c2cc(C(O)(C(F)(F)F)C(F)(F)F)ccc21 (centres unmarked) [NR-44] | 0.38 | 3.76 | 10.3 | – | – | – | – | –
CCCCn1c(=O)c2ccc(N)cc2c2cc(C(O)(C(F)(F)F)C(F)(F)F)ccc21 [NR-31-5] | 0.546 | 2.63 | > 20 | – | – | – | – | –
CCCCn1c(=O)c2cc(NC(=O)[C@@H]3C[C@@H](O)CN3)ccc2c2cc(C(O)(C(F)(F)F)C(F)(F)F)ccc21 [NR-52] | 0.14 | 2.43 | 18.1 | – | – | – | – | –
CCCn1c(=O)c2ccc(NCCO)cc2c2cc(C(O)(C(F)(F)F)C(F)(F)F)ccc21 [NR-92] | 0.72 | 3.42 | > 20 | – | – | – | – | –
CCCCn1c(=O)c2ccc(NCCN(C)C)cc2c2cc(C(O)(C(F)(F)F)C(F)(F)F)ccc21 [NR-105] | 1.48 | > 10 | 7.4 | – | – | – | – | –
CCCCn1c(=O)c2ccc(NCCN)cc2c2cc(C(O)(C(F)(F)F)C(F)(F)F)ccc21 [NR-102] | 0.75 | 2.4 | 5.5 | – | – | – | – | –
CCCCn1c(=O)c2cc(F)c(N)cc2c2cc(C(O)(C(F)(F)F)C(F)(F)F)ccc21 [NR-54] | 0.94 | 4.64 | 27.2 | – | – | – | – | –
CCCCn1c(=O)c2ccc(NC(C)=O)cc2c2cc(C(O)(C(F)(F)F)C(F)(F)F)ccc21 [TK-04] | 0.576 | 5.97 | 7.13 | – | – | – | – | –
CCCCn1c(=O)c2ccc(NC(=O)[C@H]3CC(O)CN3)cc2c2cc(C(O)(C(F)(F)F)C(F)(F)F)ccc21 (some centres unmarked) [NR-30] | 0.059 | 1.84 | 13.6 | 6.95 | 19.4 | 12.5 | 21.8 | –
